From ChEMBL document CHEMBL3600290, “From hybrid compounds to targeted drug delivery in antimalarial therapy” (Bioorg Med Chem, 2015)
Converted amounts (≈) assume the structure as drawn. One block for each molecule: values may come before it. Numbered stars: 1 amine (or outer) side, 2 acyl side, 3 side chain; on linkers, the order of the positions; unused ones are H or OH. Square brackets hold non-standard residues; d marks the D form. Peptide text beside a SMILES is read from it. * marks the point of attachment. hPhe = N[C@@H](CCc1ccccc1)C(=O)O; Morpholide = C1CN(*)CCO1; CO = O=C([*:1])[*:2]

Legend:
Plasmodium berghei = experiment: Antimalarial activity against liver stage of Plasmodium berghei; assay type: functional, organism-based
Plasmodium falciparum [1] = experiment: Antimalarial activity against Plasmodium falciparum W2 assessed as inhibition of parasite growth; assay type: functional, organism-based
[2] = Inhibition of Plasmodium falciparum FP2
Plasmodium falciparum [3] = experiment: Antimalarial activity against Plasmodium falciparum 3D7 assessed as inhibition of parasite growth; assay type: functional, organism-based
Plasmodium falciparum [4] = experiment: Antimalarial activity against Plasmodium falciparum Dd2 assessed as inhibition of parasite growth; assay type: functional, organism-based
Plasmodium falciparum [5] = experiment: Antimalarial activity against chloroquine-resistant Plasmodium falciparum K1 assessed as inhibition of parasite growth; assay type: functional, organism-based
[6] = Inhibition of Plasmodium falciparum DPAP1 after 30 mins
Plasmodium falciparum [7] = experiment: Antimalarial activity against Plasmodium falciparum D10 assessed as inhibition of parasite growth; assay type: functional, organism-based
Plasmodium falciparum [8] = experiment: Antimalarial activity against Plasmodium falciparum infected in mouse assessed as mouse survival at 3x10 mg/kg/day, po; assay type: functional
Plasmodium falciparum [9] = experiment: Antimalarial activity against Plasmodium falciparum infected in mouse assessed as suppression of parasitemia at 3x10 mg/kg/day, po measured at day 4 post-infection; assay type: functional
Plasmodium falciparum [10] = experiment: Antimalarial activity against Plasmodium falciparum FcB1; assay type: functional, organism-based
Plasmodium falciparum [11] = experiment: Antimalarial activity against Plasmodium falciparum NF54 assessed as inhibition of parasite growth; assay type: functional, organism-based
Plasmodium falciparum [12] = experiment: Antimalarial activity against Plasmodium falciparum infected in mouse assessed as cure rate at 26 to 32 mg/kg/day administered po or ip; assay type: functional
Plasmodium falciparum [13] = experiment: Antimalarial activity against Plasmodium falciparum F32; assay type: functional, organism-based
[14] = Inhibition of beta-hematin formation; assay type: physicochemical
Plasmodium falciparum [15] = experiment: Antimalarial activity against Plasmodium falciparum D6 assessed as inhibition of parasite growth; assay type: functional, organism-based

SMILES: COc1cc(NC(C)CCCNC(=O)c2ccc(CO[C@H]3O[C@@H]4O[C@@]5(C)CC[C@H]6[C@H](C)CC[C@@H]([C@H]3C)[C@@]46OO5)cc2)c2ncccc2c1 (stereo partly drawn)
IC50 (Plasmodium berghei): 67 nM
IC50 (Plasmodium falciparum [1]): 5.1 nM

SMILES: CC(C)CN(NC(=O)C1CCC2(CC1)OOC1(OO2)C2CC3CC(C2)CC1C3)c1nc(C#N)ncc1Br (stereo not drawn)
IC50 [2]: 16.4 nM

SMILES: COc1cc(NC(C)CCCNc2ccnc3cc(Cl)ccc23)c2ncccc2c1 (stereo not drawn)
IC50 (Plasmodium falciparum [3]): 640 nM
IC50 (Plasmodium falciparum [4]): 580 nM

SMILES: C[C@@H]1CC[C@H]2[C@@H](C)C(=O)O[C@@H]3O[C@@]4(C)CC[C@@H]1[C@]32OO4 [ARTEMISININ]
IC50 (Plasmodium falciparum [5]): 47 nM

IC50 [6]: 0.07 µM
SMILES: CCCCC(C(=O)COc1c(F)c(F)cc(F)c1F)n1cc([C@@](C)(N)C2CCCC2)nn1 (stereo partly drawn)
IC50 (Plasmodium falciparum [7]): 5.2 nM

SMILES: CCN(CC)Cc1cc(C2CCC3(CC2)OOC2(OO3)C3CC4CC(C3)CC2C4)ccc1O (stereo not drawn)
Survival (Plasmodium falciparum [8]): >20 days
IC50 (Plasmodium falciparum [1]): 5.1 nM
IC50 (Plasmodium falciparum [5]): 5.7 nM
inhibition (INH) (Plasmodium falciparum [9]): 99.8%

SMILES: CC(C)C[C@H](NC(=O)c1ccc(CO[C@H]2O[C@@H]3O[C@@]4(C)CC[C@H]5[C@H](C)CC[C@@H]([C@H]2C)[C@@]35OO4)cc1)C(=O)N[C@H](/C=C/S(C)(=O)=O)CCc1ccccc1
IC50 [2]: 3500 nM

SMILES: CC(=O)O[C@@]1(C)CC[C@@H]2C[C@@H]1OO[C@]2(/C=C\c1ccc(Cl)cc1)c1ccccc1
IC50 (Plasmodium falciparum [5]): 23 nM

IC50 [2]: 1020 nM
SMILES: CC(C)(O)C[C@H](NC(=O)N1CCOCC1)C(=O)N[C@H](/C=C/S(=O)(=O)c1ccccc1)CCc1ccccc1
IC50 (Plasmodium falciparum [1]): 180 nM

IC50 [2]: 16.3 nM
SMILES: CC(C)C[C@H](NC(=O)N1CCOCC1)C(=O)N[C@H](C=O)CCc1ccccc1 ({Morpholide-CO}-Leu-[hPhe]-aldehyde)

SMILES: C[C@H]1[C@H](OCCNCCNc2ccnc3cc(Cl)ccc23)O[C@@H]2O[C@@]3(C)CC[C@H]4[C@H](C)CC[C@@H]1[C@@]24OO3
IC50 (Plasmodium falciparum [3]): 20.5 nM
IC50 (Plasmodium falciparum [4]): 25.7 nM
IC50 (Plasmodium falciparum [7]): 21.5 nM

SMILES: COc1ccc(C[C@H](NC(=O)OC2CCCC3(C2)OOC2(O3)C3CC4CC(C3)CC2C4)C(=O)N[C@H]2[C@@H](O)[C@H](n3cnc4c(N(C)C)ncnc43)O[C@@H]2CO)cc1 (stereo partly drawn)
IC50 (Plasmodium falciparum [1]): 10 nM

SMILES: COc1ccc2nccc([C@@H](O)[C@@H]3C[C@@H]4CCN3C[C@@H]4CC(=O)O[C@@H]3O[C@@H]4O[C@@]5(C)CC[C@H]6[C@H](C)CC[C@@H]([C@H]3C)[C@@]46OO5)c2c1
IC50 (Plasmodium falciparum [3]): 8.95 nM
IC50 (Plasmodium falciparum [10]): 9.59 nM

IC50 [2]: 3160 nM
SMILES: O=C(NCCNc1ccnc2cc(Cl)ccc12)N/N=C/c1ccc(O)c(CN2CCN(c3ccnc4cc(Cl)ccc34)CC2)c1O

IC50 [2]: 69.1 nM
SMILES: CC(C)C[C@H](NC(=O)C1CCC(=O)CC1)C(=O)N[C@H](/C=C/S(=O)(=O)c1ccccc1)CCc1ccccc1
IC50 (Plasmodium falciparum [3]): 288 nM
IC50 (Plasmodium falciparum [1]): 26.2 nM

MIC (Plasmodium falciparum [11]): 0.125 µg/mL (≈ 0.391 µM)
SMILES: CCN(CC)CCCC(C)Nc1ccnc2cc(Cl)ccc12 (stereo not drawn) [CHLOROQUINE]

SMILES: Cc1ccc2c(c1)/C(=N/NC(N)=S)C(=O)N2CCNc1ccnc2cc(Cl)ccc12
IC50 [2]: 11600 nM
IC50 (Plasmodium falciparum [1]): 51 nM
IC50 (Plasmodium falciparum [7]): 79 nM

IC50 [2]: 58.4 nM
SMILES: CC(C)CN(NC(=O)C1CCC(=O)CC1)c1nc(C#N)ncc1Br

SMILES: C[C@@H]1C(=O)C[C@H]2C[C@@H]1OO[C@@]2(C)/C=C\c1ccc(C(F)(F)F)cc1C(F)(F)F [ARTEFLENE]
IC50 (Plasmodium falciparum [5]): 15 nM

SMILES: CC1(C)COC2(CCC(NC3CCC(Nc4ccnc5cc(Cl)ccc45)CC3)CC2)OO1 (stereo not drawn)
IC50 (Plasmodium falciparum [10]): 24 nM
IC50 (Plasmodium falciparum [1]): 15 nM
Activity (Plasmodium falciparum [12]): 100%
IC50 (Plasmodium falciparum [13]): 13 nM

SMILES: Clc1ccc2c(NCCNC(CCN3CCCCC3)c3ccccc3)ccnc2c1 (stereo not drawn)
IC50 (Plasmodium falciparum [11]): 7.1 nM

SMILES: CC(C)(C[C@H](NC(=O)N1CCOCC1)C(=O)N[C@H](/C=C/S(=O)(=O)c1ccccc1)CCc1ccccc1)OC(=O)OCC[C@@]1(CCC(=O)NCCCN2CCCC2=O)OOC2(O1)C1CC3CC(C1)CC2C3 (stereo partly drawn)
IC50 [2]: 50000 nM
IC50 (Plasmodium falciparum [1]): 600 nM

IC50 [14]: 1600 nM
SMILES: Clc1ccc2c(NCCCN3CCC(NC(c4ccccn4)c4ccccn4)CC3)ccnc2c1 [DM-1157]
IC50 (Plasmodium falciparum [15]): 0.9 nM
IC50 (Plasmodium falciparum [4]): 1.6 nM

SMILES: CCCCC(C(=O)COc1c(F)c(F)cc(F)c1F)n1cc([C@@](C)(NC(=O)OCC[C@@]2(CCC(=O)NCCCN3CCCC3=O)OOC3(O2)C2CC4CC(C2)CC3C4)C2CCCC2)nn1 (stereo partly drawn)
IC50 [6]: 10 µM
IC50 (Plasmodium falciparum [7]): 4 nM

IC50 [2]: 19600 nM
SMILES: CC(C)C[C@@H](NC(=O)/C=C/c1ccccc1)C(=O)N[C@H](CCc1ccccc1)C(=O)Nc1ccnc2cc(Cl)ccc12

SMILES: C[C@@H]1CC[C@H]2C(CN3CCCCC3[C@H](O)c3cc(C(F)(F)F)nc4c(C(F)(F)F)cccc34)=C(C(F)(F)F)O[C@@H]3O[C@@]4(C)CC[C@@H]1[C@]32OO4 (stereo partly drawn)
IC50 (Plasmodium falciparum [10]): 17.2 nM
IC50 (Plasmodium falciparum [5]): 10.6 nM
IC50 (Plasmodium falciparum [13]): 15.7 nM

SMILES: COc1cc(NC(C)CCCNC2CCC3(CC2)OOC2(OO3)C3CC4CC(C3)CC2C4)c2ncccc2c1 (stereo not drawn)
IC50 (Plasmodium berghei): 330 nM
IC50 (Plasmodium falciparum [1]): 22 nM

SMILES: CC(C)C[C@H](NC(=O)C1CCC2(CC1)OOC1(OO2)C2CC3CC(C2)CC1C3)C(=O)N[C@H](/C=C/S(=O)(=O)c1ccccc1)CCc1ccccc1 (stereo partly drawn)
IC50 (Plasmodium falciparum [3]): 28.4 nM
IC50 [2]: 1800 nM
IC50 (Plasmodium falciparum [1]): 18.5 nM

SMILES: COc1ccc(C[C@H](N)C(=O)N[C@H]2[C@@H](O)[C@H](n3cnc4c(N(C)C)ncnc43)O[C@@H]2CO)cc1 [PUROMYCIN]
IC50 (Plasmodium falciparum [1]): 42 nM

MIC (Plasmodium falciparum [11]): 0.25 µg/mL (≈ 0.489 µM)
SMILES: COc1ccc2nc3cc(Cl)ccc3c(Nc3cccc(Nc4ccnc5cc(Cl)ccc45)c3)c2c1

SMILES: CC(C)C[C@H](NC(=O)N1CCOCC1)C(=O)N[C@@H](CCc1ccccc1)[C@@H]1OOC2(O1)C1CC3CC(C1)CC2C3 (stereo partly drawn)
IC50 (Plasmodium falciparum [3]): 35.3 nM
IC50 [2]: 510 nM
